Measurements as given in paper PMC9589286, “Ruthenium polypyridine complexes with triphenylamine groups as antibacterial agents against Staphylococcus aureus with membrane-disruptive mechanism” (Frontiers in Chemistry, 2022).

Experiments:
[1] = tested on: Staphylococcus aureus; experiment: Membrane permeability, ONPG hydrolysis; type: cell-based; details: Ru-3 2 or 4 μg/ml vs vancomycin 2 μg/ml
Protocol: O-nitrobenzene-β-D-galactopyranoside (ONPG) was the substrate of intracellular ß-galactosidase, that was used to determine the permeability of Staphylococcus aureus cell membrane. Staphylococcus aureus was cultured to logarithmic phase, then washed and cultured in M9 lactose medium, in which lactose was used as the only carbon source of a single colony and stayed overnight at 37°C. After washing three times with PBS, the culture was diluted to OD600 = 0.3 (PBS). […] The hydrolysis of ONPG to o-nitrophenol over time was monitored by UV every 15 min at 415 nm. A similar procedure was used for untreated cells as control ([Xuan et al., 2021]).

[2] = tested on: Staphylococcus aureus; experiment: Drug resistance study, 20 generations at sub inhibitory concentration; type: cell-based
Protocol: After Staphylococcus aureus was cultured for 5 h, the bacteria were diluted 1000 times with fresh TSB and the MIC of Ru-3 was measured. The bacterial solution grown at the sub inhibitory concentration of compound Ru-3 was inoculated into fresh TSB medium for 5 h, then the MIC was measured, and the above procedure was repeated for 20 generations. Ampicillin was used as the control.

[3] = tested on: Staphylococcus aureus; experiment: DiSC3(5) and DAPI/PI fluorescence staining; type: cell-based; details: 4 μg ml^−1, 2 h
Protocol: Firstly, S. aureus was cultured in TSB medium to exponential phase. Exponential growth bacteria were collected by centrifugation at 5000 rpm for 2 min, then washed with PBS and diluted to OD600 value of 0.3. Secondly, Ru-3 (4 μg ml^−1) was added to the bacterial suspension solution and incubated at 37°C for 2 h, then the supernatant was removed by centrifuging. Thirdly, the bacterial was washed with PBS for three times and suspendedin 500 μL PBS. Subsequently, adding 20 μL DiSC3(5) (30 μM), incubating for 1 h under dark conditions. For DAPI and PI, adding 20 μL DAPI (10 μg ml^−1), incubating for 15 min under dark conditions. Next, adding 20 μL PI (15 μg ml^−1) in the same tube, and incubating for 15 min under dark conditions. After that, centrifuge, removing the supernatant. Eventually, suspending with 500 uL PBS and 20 μL samples were transfered on glass slides and observed under fluorescent cell imager.

[4] = tested on: Galleria mellonella; experiment: Toxicity in insect model Galleria mellonella; type: in vivo; details: 64 mg kg^−1, larvae, 120 h
Protocol: Based on the excellent antibacterial effect of Ru-3 in vitro, its biosafety was further evaluated. Firstly, the hemolytic activity of ruthenium complexes on rabbit red blood cells was measured to study their toxicity. […] In view of its good compatibility with mammalian red blood cells, the toxicity of Ru-3 to eukaryotes was also studied. Herein, Ru-3 was tested with Gallery melonella larvae. […] When the concentration of Ru-3 was 64 mg kg^−1, the survival rate was still 75%.
FIGURE 15 Test results of Ru compounds toxicity (A) % hemolysis at 256 μg ml^−1 of Ru compounds. (B) Kaplan-Meier survival curves. […] The larvae were incubated at 37.5°C and live/dead scores were conducted at 120 h (C) H&E staining images of the infected tissues with different treatments.

[5] = tested on: Staphylococcus aureus hemolysin; experiment: Toxin (hemolysin) secretion, rabbit blood cell hemolysis by culture supernatant; type: cell-based
Protocol: Firstly, S. aureus was cultured overnight and diluted 1000 times with fresh TSB, then a mixture of Ru-3 of 1 μg ml^−1 or 2 μg ml^−1 and Staphylococcus aureus solution was cultured in a shaking Table at 37°C for 18 h. After culturing, centrifuging (5000 rpm, 2 min) Staphylococcus aureus solution. And rabbit blood cells were prepared with PBS buffer (washing rabbit blood three times). Blood cells were collected by centrifugation (2000 rpm, 2 min). Secondly, a mixture containing 1 ml PBS buffer, 150 μL supernatant and 25 μL blood cells was cultured at 37°C for 30 min. Then cultured supernatant was obtained by centrifugation (2000 rpm, room temperature, 2 min). Finally, the optical density of the supernatant was measured at 540 nm.

[6] = tested on: BALB/c mice; experiment: Acute skin irritation test, H&E; type: in vivo; details: 0.05 and 0.1 mg ml^−1, once a day for 3 days, topical
Protocol: Female BALB/c mice were randomly divided into three groups, control group, Ru-3 (0.05 mg ml^−1) group and Ru-3 (0.1 mg ml^−1). The day before the experiment, the hair on the back of female mice was removed. The compound and distilled water control were gently attached to the shaving site (about 2 cm^2) once a day for 3 days. On the fourth day, the mice were killed by cervical dislocation. The skin tissue at the site of infections were taken out and fixed in 4% paraformaldehyde at 4°C for 1 day, then embedded in paraffin. Serial sections were prepared for H&E analysis.

[7] = tested on: Staphylococcus aureus; experiment: Nucleic acid leakage, 260 nm absorbing material; type: cell-based; details: 4 μg/ml, 2 h
Protocol: To verify the membrane damage, the loss of 260 nm absorbing material was carried out ([Yu et al., 2021]). Briefly, overnight cultured bacteria were diluted 1:1000 in fresh TSB and shaken at 37°C for about 5 h until the exponential stage was reached. The supernatant was removed by centrifugation, then the bacteria were resuspended to OD600 = 1 with PBS, which was further treated with Ru-3 or polymyxin B and centrifuged after 2 h to precipitate bacterial cells. Subsequently, the loss of 260 nm absorbing material, including the release of DNA and RNA in the filtrate, was measured at 260 nm.

[8] = Partition coefficient, shake flask 1-octanol/PBS; type: physicochemical
Protocol: The partition coefficients of all complexes were determined by standard shake flask method in 1-octanol and buffer liquid system ([Yang et al., 2021]). In brief, the octanol/water partition coefficient is obtained by the incubation of 2 ml of 25 μg ml^−1 ruthenium complex 1-octanol and 2 ml PBS samples. After shaking the solution for 6 h, the samples were stood for 2 h. The absorbance of octanol complex at 282 nm before and after oscillation was measured. The absorbance of 1-octanol before oscillation minus the absorbance of 1-octanol after oscillation is the absorbance of the complex in water. Each experiment was repeated three times. The partition coefficient is reported as the number of octanol divided by the number of water.

## [Ru(dmb)2PMA] (PF6)2 [Ru-3]
[1]
  plasma membrane permeability (ONPG): better membrane permeability
[2]; 20 passages at sublethal concentration
  increase of MIC value after 20 generations: four
[2]; ampicillin, polymyxin B, tetracycline, clindamycin resistant S. aureus obtained after 20 generations
  MIC values against antibiotic resistant S. aureus: almost the same as the wild type
[3]
  DAPI/PI fluorescence: blue and red fluorescence
  membrane depolarization, DiSC3(5) fluorescence: strong green fluorescence
[4]
  survival rate: 75%
[5]; 1 μg ml^−1
  Toxin reduced by: 38%
[5]; 2 μg ml^−1
  Toxin reduced by: 63%
[6]
  skin irritation, H&E pathological changes: no obvious pathological abnormalities
[7]
  Δ% Nucleic acid leakage: 20%
[8]
  LgP: 1.79
  logD o/w: ca. 1.7885
